According to the supplement of paper PMC5908809:

Legend:
[1] = tested on: normal NK cells expanded with K562-aAPC; assay: percent inhibition of viability; higher = more inhibition; settings: 72 h, IL-2 2.5 ng/mL
Protocol: (§1)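 Drug sensitivity and resistance testing on K562-aAPC-expanded normal NK cells: 5 concentrations (10-fold steps over a 10,000-fold range), 72 h at 37 °C, viability by CellTiter-Glo normalised to DMSO and benzethonium chloride controls; DSS from the fitted curve.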

DERL-7 (IL-2 2.5 ng/mL) [2] = assay: as above; settings: 72 h
IMC-1 (IL-2 20 ng/mL) [3] = assay: as above; settings: 72 h
KAI3 (IL-2 2.5 ng/mL) [4] = assay: as above; settings: 72 h
KHYG-1 (IL-2 2.5 ng/mL) [5] = assay: as above; settings: 72 h
NK-92 (IL-2 2.5 ng/mL) [6] = assay: as above; settings: 72 h
NK-YS (IL-2 2.5 ng/mL) [7] = assay: as above; settings: 72 h
NKL (IL-2 2.5 ng/mL) [8] = assay: as above; settings: 72 h
SNK-6 (IL-2 2.5 ng/mL) [9] = assay: as above; settings: 72 h
YT (IL-2 2.5 ng/mL) [10] = assay: as above; settings: 72 h
[11] = tested on: normal primary NK cells, pool 1 (3 donors) (IL-2 2.5 ng/mL); assay: as above; settings: 72 h
[12] = tested on: normal primary NK cells, pool 1 (3 donors), resting (IL-2 0 ng/mL); assay: as above; settings: 72 h
[13] = tested on: normal primary NK cells, pool 2 (3 donors) (IL-2 2.5 ng/mL); assay: as above; settings: 72 h
[14] = tested on: normal primary NK cells, pool 3 (3 donors) (IL-2 2.5 ng/mL); assay: as above; settings: 72 h
[15] = tested on: normal NK cells expanded with K562-aAPC; assay: drug sensitivity score (DSS) (DSS units); higher = more sensitive; extreme values may be limits of the assay; settings: 72 h; IL-2 2.5 ng/mL
Protocol: as §1

DERL-7 (IL-2 2.5 ng/mL) [16] = assay: as above; settings: 72 h
IMC-1 (IL-2 20 ng/mL) [17] = assay: as above; settings: 72 h
KAI3 (IL-2 2.5 ng/mL) [18] = assay: as above; settings: 72 h
KHYG-1 (IL-2 2.5 ng/mL) [19] = assay: as above; settings: 72 h
NK-92 (IL-2 2.5 ng/mL) [20] = assay: as above; settings: 72 h
NK-YS (IL-2 2.5 ng/mL) [21] = assay: as above; settings: 72 h
NKL (IL-2 2.5 ng/mL) [22] = assay: as above; settings: 72 h
SNK-6 (IL-2 2.5 ng/mL) [23] = assay: as above; settings: 72 h
YT (IL-2 2.5 ng/mL) [24] = assay: as above; settings: 72 h
[25] = tested on: normal primary NK cells, pool 1 (3 donors) (IL-2 2.5 ng/mL); assay: as above; settings: 72 h
[26] = tested on: normal primary NK cells, pool 1 (3 donors), resting (IL-2 0 ng/mL); assay: as above; settings: 72 h
[27] = tested on: normal primary NK cells, pool 2 (3 donors) (IL-2 2.5 ng/mL); assay: as above; settings: 72 h
[28] = tested on: normal primary NK cells, pool 3 (3 donors) (IL-2 2.5 ng/mL); assay: as above; settings: 72 h

O=c1[nH]c(=O)n([C@H]2C[C@H](O)[C@@H](CO)O2)cc1F [Floxuridine] (max concentration tested 10000 nM)
percent inhibition of viability [%]
Settings	1 nM	10 nM	100 nM	1000 nM	10000 nM
DERL-7 (IL-2 2.5 ng/mL) [2]	-7.14	68.8	44.1	69.8	94.3
IMC-1 (IL-2 20 ng/mL) [3]	-2.91	-1.68	33.5	96.1	95.4
KAI3 (IL-2 2.5 ng/mL) [4]	-6.31	31.3	63.4	63.7	45.6
KHYG-1 (IL-2 2.5 ng/mL) [5]	0.05	58.9	96.8	99.1	95.1
NK-92 (IL-2 2.5 ng/mL) [6]	-16.2	25.2	72.5	82.6	78.8
NK-YS (IL-2 2.5 ng/mL) [7]	-4.95	13.6	73.5	84	78.7
NKL (IL-2 2.5 ng/mL) [8]	-14.5	15.7	48.8	68.5	82.9
SNK-6 (IL-2 2.5 ng/mL) [9]	15.3	9.27	54	91.8	89.4
YT (IL-2 2.5 ng/mL) [10]	-3.94	0.97	9.92	50.2	57.9
[1]	-4.55	-4.54	25.1	39.5	43.4
[11]	-6.27	-7.98	-5.58	6.75	5.43
[12]	-14.4	-13.5	-18.7	8.19	9.19
[13]	-16.1	-13.4	-7.65	-1.05	8.12
[14]	-14	-7.11	-9.62	-2.43	-3.12

Settings	drug sensitivity score
DERL-7 (IL-2 2.5 ng/mL) [16]	25.9
IMC-1 (IL-2 20 ng/mL) [17]	22
KAI3 (IL-2 2.5 ng/mL) [18]	24
KHYG-1 (IL-2 2.5 ng/mL) [19]	37.2
NK-92 (IL-2 2.5 ng/mL) [20]	27.2
NK-YS (IL-2 2.5 ng/mL) [21]	25.9
NKL (IL-2 2.5 ng/mL) [22]	20.2
SNK-6 (IL-2 2.5 ng/mL) [23]	23.3
YT (IL-2 2.5 ng/mL) [24]	10.4
[15]	10.9
[25]	0
[26]	0
[27]	0
[28]	0

Cc1cc(Nc2cc(CN3CCOCC3)c3nc(C)c(Cc4ccc(Cl)cc4F)n3n2)n[nH]1 [Gandotinib] (max concentration tested 10000 nM)
percent inhibition of viability [%]
Settings	1 nM	10 nM	100 nM	1000 nM	10000 nM
DERL-7 (IL-2 2.5 ng/mL) [2]	2.64	12.5	31.3	96.2	100
IMC-1 (IL-2 20 ng/mL) [3]	-4.23	-6.96	-22.2	36.1	99.6
KAI3 (IL-2 2.5 ng/mL) [4]	8.43	12.9	45.1	92.9	82.2
KHYG-1 (IL-2 2.5 ng/mL) [5]	0.26	6.43	45.7	106	95.9
NK-92 (IL-2 2.5 ng/mL) [6]	4.87	11.2	20.5	86.5	96.2
NK-YS (IL-2 2.5 ng/mL) [7]	1.47	2.64	22.9	77.5	93.6
NKL (IL-2 2.5 ng/mL) [8]	-9.53	-6.03	52.5	77.8	71.9
SNK-6 (IL-2 2.5 ng/mL) [9]	6.62	7.51	9.98	95	87.1
YT (IL-2 2.5 ng/mL) [10]	1.95	-0.29	5.49	77.5	94.8
[1]	-0.65	3.87	25.1	89.6	70.5
[11]	-11.8	-7.74	18.1	58.3	79.4
[12]	-20.1	-7.1	2.98	-45.4	20.2
[13]	-11.3	-5.04	11.2	50.9	52.6
[14]	-10.9	-0.67	2.59	43.9	65.9

Settings	drug sensitivity score
DERL-7 (IL-2 2.5 ng/mL) [16]	21
IMC-1 (IL-2 20 ng/mL) [17]	10.4
KAI3 (IL-2 2.5 ng/mL) [18]	22
KHYG-1 (IL-2 2.5 ng/mL) [19]	23.9
NK-92 (IL-2 2.5 ng/mL) [20]	18.3
NK-YS (IL-2 2.5 ng/mL) [21]	17.1
NKL (IL-2 2.5 ng/mL) [22]	20.4
SNK-6 (IL-2 2.5 ng/mL) [23]	18.8
YT (IL-2 2.5 ng/mL) [24]	15
[15]	20
[25]	13
[26]	0.18
[27]	11.1
[28]	8.97

O=C(c1ccc(F)c(F)c1Nc1ccc(I)cc1F)N1CC(O)([C@@H]2CCCCN2)C1 [Cobimetinib] (max concentration tested 1000 nM)
percent inhibition of viability [%]
Settings	0.1 nM	1 nM	10 nM	100 nM	1000 nM
DERL-7 (IL-2 2.5 ng/mL) [2]	-2.43	3.83	18.1	32.9	46.5
IMC-1 (IL-2 20 ng/mL) [3]	-6.91	-4.02	-2.84	-2.89	11.3
KAI3 (IL-2 2.5 ng/mL) [4]	9.38	9.29	9.13	11.7	32.1
KHYG-1 (IL-2 2.5 ng/mL) [5]	0.28	-3.46	0.44	23.2	61.9
NK-92 (IL-2 2.5 ng/mL) [6]	-10.5	-14.3	-27.4	-34.9	9.96
NK-YS (IL-2 2.5 ng/mL) [7]	-1.72	-3.33	-3.31	6.41	24.2
NKL (IL-2 2.5 ng/mL) [8]	-12.4	-11.4	17.8	45	73.1
SNK-6 (IL-2 2.5 ng/mL) [9]	-10.3	-0.09	-17.7	-8.92	-10.9
YT (IL-2 2.5 ng/mL) [10]	0.33	-2.92	-2.04	-0.43	15.7
[1]	-7.24	-7.72	-6.49	1.17	21.4
[11]	-3.52	2.49	17.3	18.4	24
[12]	7.7	3.18	22	14	16.4
[13]	-3.62	-9.92	3.68	12.4	19.9
[14]	-9.25	-10.3	-2.76	-1.62	12.1

Settings	drug sensitivity score
DERL-7 (IL-2 2.5 ng/mL) [16]	7.96
IMC-1 (IL-2 20 ng/mL) [17]	0
KAI3 (IL-2 2.5 ng/mL) [18]	3.21
KHYG-1 (IL-2 2.5 ng/mL) [19]	6.6
NK-92 (IL-2 2.5 ng/mL) [20]	0
NK-YS (IL-2 2.5 ng/mL) [21]	1.78
NKL (IL-2 2.5 ng/mL) [22]	10.4
SNK-6 (IL-2 2.5 ng/mL) [23]	0
YT (IL-2 2.5 ng/mL) [24]	0.26
[15]	0.83
[25]	5.11
[26]	2.92
[27]	1.58
[28]	0.02
